Measurements as given in EPA's ToxValDB 9.5.
Several values for one entry are separate records, joined by “and”; a condition that tells them apart may be missing. Equal entries are not always repeated.

Assays:
Canidae = conditions: subchronic; duration: 90 days; oral; diet; Beagle
Oryctolagus sp. = conditions: for LD50: acute, dermal, occlusive; for NOAEL: duration: 13 days, oral, gavage
Rattus norvegicus [1] = tested on: Rattus norvegicus
Anas platyrhynchos = conditions: oral
Rattus norvegicus [2] = conditions: repeat dose other; oral
Mus musculus [3] = conditions: duration: 2 years, oral, M/F, Albino, increased liver weight
Coturnix japonica = conditions: repeat dose other; oral
Neovison sp. = conditions: repeat dose other; oral; Mink
Rattus norvegicus [4] = conditions: M/F; for LOAEL: subchronic, autoimmune effects (autoimmune glomerulonephritis)
Rattus norvegicus [5] = conditions: oral, gavage
Rattus norvegicus [6] = conditions: uterotrophic, duration: 3 days, Active
Mus musculus [7] = conditions: developmental; oral; gavage; M; neurobehavioral effects
Mus musculus [8] = conditions: reproduction developmental, oral, gavage, M, NMRI, generation: P0
Rattus norvegicus [9] = conditions: chronic; duration: 2 years; oral; diet; Liver: Increased weight
Mus musculus [10] = conditions: uterotrophic; duration: 3 days; oral; Active
Rattus norvegicus [11] = conditions: subchronic, oral, drinking water, Fischer 344, Deaths + Body Weight Changes: decrease + Water Consumption: decrease + Hematology: Hct increase, Hgb increase, RBC increase + Blood …
Mus musculus [12] = conditions: acute; oral
Rattus norvegicus [13] = conditions: chronic; duration: 2 years; oral; diet; M/F; albino; Whole Body Effects
Gallus sp. = conditions: subchronic; duration: 90 days; oral; F; neurotoxicity
[14] = reproduction developmental, duration: 10 days, oral, gavage, F, CD
[15] = subchronic, duration: 90 days, oral, diet, Sprague-Dawley
[16] = chronic, duration: 2 years, oral, diet, liver weight increased males
[17] = short-term, duration: 28 days, oral, gavage

Q: For `O=C(O)CCCC(=O)O` [Glutaric acid], which “LOAEL (% diet)” value (Canidae) is on record?
A: 3

Q: And the “NOAEL (% diet)” value (Canidae)?
A: ≥ 2

Q: What about the LD50 (Oryctolagus sp.; New Zealand) of the same compound?
A: > 10000 mg/kg

Q: What about the NOAEL (Oryctolagus sp.; developmental, New Zealand) of the same compound?
A: > 500 mg/kg-day

Q: What about the NOAEL (Oryctolagus sp.; reproduction developmental, F, New Zealand) of the same compound?
A: > 500 mg/kg-day

Q: And the LD50 (Rattus norvegicus [1]; acute, oral, Sprague-Dawley)?
A: 2750 mg/kg

Q: And the NOAEL (Rattus norvegicus [1]; developmental, duration: 10 days, oral, gavage, CD)?
A: 1300 mg/kg-day

Q: What about the LOAEL (Rattus norvegicus [1]; [14]) of the same compound?
A: 400 mg/kg-day

Q: What about the NOAEL (Rattus norvegicus [1]; [14]) of the same compound?
A: 125 mg/kg-day

Q: And the NOAEL (Rattus norvegicus [1]; reproduction developmental, duration: 10 days, oral, gavage, F, Sprague-Dawley)?
A: ≥ 1000 mg/kg-day

Q: And the “LOAEL (% diet)” value (Rattus norvegicus [1]; [15])?
A: 2

Q: And the “NOAEL (% diet)” value (Rattus norvegicus [1]; [15])?
A: ≥ 1

Q: `[Cl][Cd][Cl]` [Cadmium chloride] was tested. Which LOAEL (Anas platyrhynchos) did it give?
A: 20 mg/kg-day

Q: What about the NOAEL (Anas platyrhynchos) of the same compound?
A: 1.45 mg/kg-day

Q: What about the LOAEL (Rattus norvegicus [2]) of the same compound?
A: 10 mg/kg-day

Q: What about the NOAEL (Rattus norvegicus [2]) of the same compound?
A: 1 mg/kg-day

Q: What does the source list for `CSc1nc2cc(Oc3cccc(Cl)c3Cl)c(Cl)cc2[nH]1` [Triclabendazole]?
A: NOEL (Mus musculus [3]; Chronic / dietary, feed): 0.27 mg/kg-day; NOEL (Mus musculus [3]; chronic, diet): 0.27 mg/kg-day

Q: How did the LOAEL (Coturnix japonica) turn out when `[Cl][Hg][Cl]` [Mercuric chloride] was run?
A: 0.9 mg/kg-day

Q: And the NOAEL (Coturnix japonica)?
A: 0.45 mg/kg-day

Q: What about the NOAEL (Neovison sp.) of the same compound?
A: 1 mg/kg-day

Q: What about the LOAEL (Rattus norvegicus [4]; injection, subcutaneous) of the same compound?
A: 0.226 mg/kg-day

Q: What about the LOAEL (Rattus norvegicus [4]; oral, diet) of the same compound?
A: 0.317 mg/kg-day and 0.633 mg/kg-day

Q: And the LOAEL (Rattus norvegicus [5]; short-term, duration: 28 days, unknown, Wistar, renal)?
A: 0.015 mg/kg-day

Q: What about the LEL (Rattus norvegicus [6]; injection, intraperitoneal) of the same compound?
A: 1 mg/kg-day

Q: What does the source list for `Brc1cc(Br)c(Oc2cc(Br)c(Br)cc2Br)cc1Br` [2,2',4,4',5,5'-Hexabromodiphenyl ether]?
A: LOAEL (Mus musculus [7]): 0.9 mg/kg-day; NOAEL (Mus musculus [7]): 0.45 mg/kg-day; LOEL (Mus musculus [8]; P0: Morris water maze (latency, last trial) + P0: Morris water maze (latency, middle trial) + P0: Morris water maze (latency, reversal trial…): 0.9 mg/kg-day; LOEL (Mus musculus [8]; P0: Morris water maze (latency, middle trial)): 9 mg/kg-day

Q: How did the LOAEL (Neovison sp.) turn out when `ClC1=C(Cl)C2(Cl)C3C(Cl)C=CC3C1(Cl)C2(Cl)Cl` (configuration not stated) [Heptachlor] was run?
A: 1 mg/kg-day

Q: And the NOAEL (Neovison sp.)?
A: 0.1 mg/kg-day

Q: What about the LEL (Rattus norvegicus [4]; [16]) of the same compound?
A: 0.25 mg/kg-day

Q: And the NOEL (Rattus norvegicus [4]; [16])?
A: 0.15 mg/kg-day

Q: What about the LOAEL (Rattus norvegicus [5]; reproduction developmental, duration: 14 days, F, CFT-Wistar, reproductive) of the same compound?
A: 1.8 mg/kg-day

Q: What about the LOAEL (Rattus norvegicus [5]; reproduction developmental, duration: 364 days, M/F, Sprague-Dawley, immunological, neurological) of the same compound?
A: 0.03 mg/kg-day

Q: And the NOEL (Rattus norvegicus [9])?
A: 0.15 mg/kg-day

Q: What does the source list for `O=C(OCc1ccccc1)c1ccccc1O` [Benzyl salicylate]?
A: LEL (Mus musculus [10]): 11.1 mg/kg-day; LEL (Rattus norvegicus [6]; oral): 3.7 mg/kg-day

Q: Which results are given for `O=[Se]([O-])[O-].[Na+].[Na+]` [Sodium selenite]?
A: LOAEL (Anas platyrhynchos): 1 mg/kg-day; NOAEL (Anas platyrhynchos): 0.5 mg/kg-day; NOEL (Rattus norvegicus [11]; F): 0.17 mg/kg-day; NOEL (Rattus norvegicus [11]; M/F): 0.304 mg/kg-day

Q: What does the source list for `O=C(O)CCCCC(=O)O` [Hexanedioic acid]?
A: LD50 (Mus musculus [12]): 1900 mg/kg; LD50 (Oryctolagus sp.; New Zealand): > 7940 mg/kg; NOAEL (Oryctolagus sp.; developmental, Dutch-belted): > 250 mg/kg-day; LC50 (Rattus norvegicus [1]; acute, Inhalation, Sprague-Dawley): > 7.7 µg/mL; LD50 (Rattus norvegicus [1]; acute, oral, Sprague-Dawley): 5050 mg/kg; NOAEL (Rattus norvegicus [1]; developmental, duration: 10 days, oral, gavage, Wistar): > 288 mg/kg-day; NOAEL (Rattus norvegicus [13]): 470 mg/kg-day

Q: With `[Mn+2].[Mn+3].[Mn+3].[O-2].[O-2].[O-2].[O-2]` [Manganese oxide (Mn3O4)] as the compound, how does the NOAEL (Coturnix japonica) read?
A: 997 mg/kg-day

Q: What about the LOAEL (Rattus norvegicus [2]) of the same compound?
A: 284 mg/kg-day

Q: And the NOAEL (Rattus norvegicus [2])?
A: 88 mg/kg-day

Q: How did the LEL (Gallus sp.) turn out when `CCOP(=S)(Oc1ccc([N+](=O)[O-])cc1)c1ccccc1` (configuration not stated) [EPN] was run?
A: 0.1 mg/kg-day

Q: And the NOEL (Gallus sp.)?
A: 0.01 mg/kg-day

Q: With `[CH3][Hg]/[N]=C(\N)NC#N` [Methyl mercury dicyandiamide] as the compound, how does the LOAEL (Anas platyrhynchos) read?
A: 0.064 mg/kg-day

Q: And the NOAEL (Anas platyrhynchos)?
A: 0.0064 mg/kg-day

Q: `CCCCCCCCCCCCCCCCc1c(Oc2ccccc2S(=O)(=O)O)cccc1S(=O)(=O)O.[Na+].[Na+]` [Disodium hexadecyl(sulfophenoxy)benzenesulfonate] was tested. Which NOAEL (Canidae) did it give?
A: 200 mg/kg-day

Q: And the LD50 (Rattus norvegicus [1]; acute, dermal, occlusive, Sprague-Dawley)?
A: > 2000 mg/kg

Q: And the LD50 (Rattus norvegicus [1]; acute, dermal, occlusive, Wistar)?
A: > 2000 mg/kg

Q: What about the LD50 (Rattus norvegicus [1]; acute, oral, gavage) of the same compound?
A: > 3980 mg/kg

Q: And the LD50 (Rattus norvegicus [1]; acute, oral, gavage, Fischer 344)?
A: 1500 mg/kg and > 2000 mg/kg

Q: And the LD50 (Rattus norvegicus [1]; acute, oral, gavage, Sprague-Dawley)?
A: 7740 mg/kg and > 5000 mg/kg

Q: And the LD50 (Rattus norvegicus [1]; acute, oral, gavage, Wistar)?
A: > 5000 mg/kg

Q: And the LOAEL (Rattus norvegicus [1]; [17])?
A: 1000 mg/kg-day

Q: And the NOAEL (Rattus norvegicus [1]; [17])?
A: 250 mg/kg-day

Q: And the LOAEL (Rattus norvegicus [1]; [15])?
A: 200 mg/kg-day

Q: And the NOAEL (Rattus norvegicus [1]; [15])?
A: 100 mg/kg-day
